Measurements as given in patent US5594001A, “Polycyclic systems, and derivatives thereof, as neurotransmitter release enhancers useful in the treatment of cognitive disorders” (The DuPont Merck Pharmaceutical Company, priority 1994, dated 1997).
pEC50: −log10 of the molar value. Where a name gives a salt, the structure may show the parent alone.

Tests used:
[1] = system: stimulus-induced acetylcholine release, slices from the parietal cortex; assay: Neurotransmitter (ACh) release assay, rat cortex slices, K+ stimulated; format: cell-based, rat (male Wistar); conditions: for activation at 10 µM: Table II, % increase of drug-induced ACh release; for pEC50: Table III
Protocol: The neurotransmitter release activities of the compounds of this invention were determined using standard biochemical assay procedures for example, the neurotransmitter release assay as described below.
Neurotransmitter release assay.
The neurotransmitter (Ach) release activities of the compounds of this invention were determined by the assay as described by Nickolson, et al., Drug Development Research, (1990) 19: 285-300, a modification of the procedure described by Mulder, et al., Brain Res., (1974) 70: 372.
Male Wistar rats (Charies River) weighing 175-200 grams were used. Rats were decapitated and brains were dissected immediately. Slices (0.3 mm thick) from the parietal cortex were prepared (approximately 100 mg wet weight) and were incubated in 10 ml KrebsRinger medium (KR) containing NaCl (116 mM), KCl (3 mM), CaCl2 (1.3 mM), MgCl2 (1.2 mM), KH2 PO4 (1.2 mM), Na2 SO4 (1.2 mM), NaHCO3 (25.0 mM), and glucose (11.0 mM), to which was added 10 uCi ^3 H-choline (specific activity approximately 35 Ci/mM; NEN) and […] unlabeled choline to give a final concentration of one micromole. The brain preparations were incubated for 30 min. at 37° C. under a steady flow of 95% O2 /5% CO2. Under these conditions, part of the radioactive choline taken up by the preparation was converted into radioactive acetylcholine (ACh) by the cholinergic nerve endings stored in synaptic vesicles, and released upon depolarization by high potassium ion (K+) containing media.
After labelling of the ACh stores, the slices were washed three times with non-radioactive KR medium and transferred to a superfusion apparatus to measure the drug effects on ACh release. The superfusion apparatus consisted of 10 thermostated glass columns of 5 mm diameter that were provided with GF/F glass fiber filters to support the slices (approximately 10 mg tissue/column). Superfusion was carried out in KR-medium (0.3 ml/min.) containing […] hemicholine-3 (HC-3). The HC-3 prevents the reuptake of choline formed during the superfusion from phospholipids and released ACh, which would be converted into unlabeled ACh and released in preference to the preformed labeled ACh. The medium was delivered by a 25-channel peristaltic pump (Ismatec by Brinkman) and warmed to 37° C. in a thermostated stainless steel coil before entering the superfusion column. Each column was provided with a 4-way slider valve (Beckmann instruments) which allowed rapid change of low to high K+/KR-medium, and with two 10-channel 3-way valves that were used to change from drug-free to drug-containing low and high K+/KR-medium. After 15 min. of washout of non-specifically bound radioactivity, collection of 4 min. fractions was initiated. After three 4 min. collections, the original medium was changed to a KR-medium in which the KCl concentration had been increased to 25 mM (high K+ medium) (S1). Depolarization-induced stimulation of release by high K+/KR-medium lasted for 4 min. Drug free low and high K+/KR-media were then substituted by drug- and vehicle-containing low- and high-K+/KR-medium, and superfusion was continued for three 4 min. collections with low K+/KR-medium, one 4 min. collection with high K+/KR-medium (s2), and two 4 min. collections with low K+/KR-medium.
Drug was added to the media by 100-fold dilutions of appropriate concentrations of the drug (in 0.9% saline) with either low- or high-K+/KR-medium. For comparative purposes, linopirdine was also run.
All superfusion fractions were collected in liquid scintillation counting vials. After superfusion, the slices were removed from the superfusion columns and extracted with 1.0 ml of 0.1N HCl. Liquiscint (NEN) counting fluid (12 ml) was added to superfusion fractions and extracts, and the samples were counted in a Packard Tricarb Liquid Scintillation Counter. No corrections were made for quenching. […]

[2] = system: ACh level in the rat hippocampus; assay: Microdialysis, ACh levels in the rat hippocampus in vivo; design: species or system rat (male Wistar); conditions: for AUC, Area % under the curve / Peak, maximal % increase of ACh release over baseline / time of Peak after administration / Duration, minutes of release above statistical significance: Table IV
Protocol: Male Wistar Rats are anaesthetized and guide cannulas stereotaxically implanted into the brain at the level of the dorsal hippocampus. Following a minimum recovery period of 72 h, dialysis probes (0.5 mm diameter, 4.0 mm long, from BAS) are inserted into the hippocampus through the guide cannulas. The probes are perfused at a rate of 2 μl/min with artificial cerebrospinal fluid containing 100 μM physostigmine sulfate (a cholinesterase inhibitor). Rats are allowed to acclimate for 2 hours prior to sample collection. Dialysate samples are collected every 20 min (40 μl) and immediately injected onto a high performance liquid chromatograph equipped for electrochemical detection (HPLC-EC) of acetylcholine (ACh). Following collection of 3 baseline samples, drugs or vehicle control are administered in 0.01 ml/g body weight and dialysate samples are collected for an additional 3 h. The ACh peak heights of the 3 samples prior to drug administration are averaged together to determine baseline ACh levels. ACh peak heights post drug administration are measured and used to determine percent change over baseline ACh levels. At the end of experiments, probe placement is verified histologically.
ACh is separated by reverse phase chromatography (Hamilton PRP-1 column 150×4.5 mm) and converted to acetate, betaine and hydrogen peroxide on an immobilized enzyme reactor column (BAS). Hydrogen peroxide is then detected electrochemically. Mobile phase for the chromatography consists of 0.2M Na2 HPO4, 0.1 mM EDTA, 0.5 mM SOS, 0.9 mM TMA.Cl, with pH adjusted to 8.0 with phosphoric acid and […] Kathon CG (ESA) added to each liter of mobile phase to retard bacterial growth.
FIGS. 1 and 2 show the effects of fluorine substitution to the pendant groups of the anthrone and azafluorene core series on the ability of compounds to increase the level of ACh in the rat hippocampus in vivo. All compounds were tested at 5 mg/kg except Ex. No 64 which was administered at 1 mg/kg. […] This was observed even though the compound was administered by a route (i.p.) which should lead to greater bioavailability than the oral route. Example 68 of the present invention, the bis-fluorinated analog of Example 611 or U.S. Pat. No. 5,173,489, on the other hand, led to a 2-fold increase in ACh levels which was maintained for over 1 hour (FIG. 1). The anthrone compound Ex. No. 440 of U.S. Pat. No. 5,173,489, at 5 mg/kg, led to a peak ACh level of 72% over baseline (FIG. 2). Ex. No. 64 of the present invention, which is the bis-fluoro analog of Ex. No. 440 of U.S. Pat. No. 5,173,489, at 1 mg/kg, led to a delayed increase in ACh levels reaching a peak of over 100% above baseline (FIG. 2). In contrast to the observed effects of Example 440 of U.S. Pat. No. 5,173,489, the increase in ACh level after administration of Example 64 of the present invention was maintained for the entire duration of testing (3 hours).

[3] = 5 mg/kg, vehicle water, NSP = no significant points

Structure (SMILES): c1ccc2c(c1)-c1sccc1C2Cc1ccncc1 (stereo not drawn) [Example 1, 4-(4-Pyridinylmethyl)-4H-indeno[1,2-B]thiophene]
- activation at 10 µM [1]: 92%

Structure (SMILES): N#Cc1cccc(CC2(Cc3ccncc3)c3ccccc3-c3sccc32)c1 (stereo not drawn) [Example 2, 3-[4-(4-Pyridinylmethyl)-4H-indeno[1,2-B]thiophen-4-ylmethyl-benzonitrile Hydrobromide Hydrate]
- activation at 10 µM [1]: 220%

Structure (SMILES): N#CCCCCC1(Cc2ccncc2)c2ccccc2-c2sccc21 (stereo not drawn) [Example 3, 4-(4-Pyridinylmethyl)-4H-indeno[1,2-B]thiophene-4-pentanenitrile Hydrobromide Hydrate]
- activation at 10 µM [1]: 145%

Structure (SMILES): CCOC(=O)CC1(Cc2ccncc2)c2ccccc2-c2sccc21 (stereo not drawn) [Example 4, 4-(4-Pyridinylmethyl)-4H-indeno[1,2-B]thiophene-4-acetic acid, Ethyl Ester Hydrochloride]
- activation at 10 µM [1]: 146%

Structure (SMILES): CC(=O)OCCCCC1(Cc2ccncc2)c2ccccc2-c2sccc21 (stereo not drawn) [Example 5, 4-(4-Pyridinylmethyl)-4H-indeno[1,2-B]thiophene-4-butanol Acetate (Ester) Hydrochloride]
- activation at 10 µM [1]: 224%

Structure (SMILES): NC(=O)CCCCC1(Cc2ccncc2)c2ccccc2-c2sccc21 (stereo not drawn) [Example 6, 4-(4-Pyridinylmethyl)-4H-indeno[1,2-B]thiophene-4-pentanamide Hydrochloride Hydrate]
- activation at 10 µM [1]: 163%

Structure (SMILES): Fc1cc(CC2(Cc3ccncc3)c3ccccc3-c3sccc32)ccn1 (stereo not drawn) [Example 7, 2-Fluoro-4-[4-(4-pyridinylmethyl)-4H-indeno[1,2-B]thiophen-4-ylmethyl]-pyridine]
- activation at 10 µM [1]: 439%
- AUC, Area % under the curve ([2]; 5 mg/kg, vehicle water): 235 ± 87%
- Peak, maximal % increase of ACh release over baseline ([2]; 5 mg/kg, vehicle water): 53 ± 19%
- time of Peak after administration ([2]; 5 mg/kg, vehicle water): 180 min
- Duration, minutes of release above statistical significance [2, 3]: NSP

Structure (SMILES): c1ccc(CC2(Cc3ccncc3)c3ccccc3-c3sccc32)cc1 (stereo not drawn) [Example 8]
- activation at 10 µM [1]: 130%

Structure (SMILES): c1cnc2c(c1)C(Cc1ccncc1)c1ccsc1-2 (stereo not drawn) [Example 10, 4-(4-Pyridinylmethyl)-4H-thieno[2',3':3,4]cyclopenta[1,2-B]pyridine]
- activation at 10 µM [1]: 118%

Structure (SMILES): Fc1cc(CC2(Cc3ccncc3)c3cccnc3-c3sccc32)ccn1 (stereo not drawn) [Example 11, 4-[(2-Fluoro-4-pyridinyl)methyl]-4-(4-pyridinylmethyl)-4H-thieno[3',2':4,5]cyclopenta[1,2-B]pyridine]
- activation at 10 µM [1]: 757%

Structure (SMILES): c1ccc(-n2cc3c(n2)-n2cccc2C3(Cc2ccncc2)Cc2ccncc2)cc1 [Example 15, 2,4-Dihydro-2-phenyl-4,4-bis(4-pyridinylmethyl)pyrazolo[4,3-B]pyrrolizine]
- activation at 10 µM [1]: 348%

Structure (SMILES): Fc1cc(CC2(Cc3ccncc3)c3ccccc3-c3ncccc32)ccn1 (stereo not drawn) [Example 62]
- pEC50 [1]: 6.52
- AUC, Area % under the curve ([2]; 5 mg/kg, vehicle water): 160 ± 187%
- Peak, maximal % increase of ACh release over baseline ([2]; 5 mg/kg, vehicle water): 47 ± 32%
- time of Peak after administration ([2]; 5 mg/kg, vehicle water): 40 min
- Duration, minutes of release above statistical significance [2, 3]: NSP
- AUC, Area % under the curve ([2]; 10 mg/kg, vehicle water): 221 ± 85%
- Duration, minutes of release above statistical significance ([2]; 10 mg/kg, vehicle water): > 40 min
- Peak, maximal % increase of ACh release over baseline ([2]; 10 mg/kg, vehicle water): 52 ± 10%
- time of Peak after administration ([2]; 10 mg/kg, vehicle water): 20 min

Structure (SMILES): O=C1c2ccccc2C(Cc2ccnc(F)c2)(Cc2ccnc(F)c2)c2ccccc21 [Example 64, 10,10-Bis((2-fluoro-4-pyridinyl)methyl)-9(10H)-anthracenone]
- pEC50 [1]: 6.18
- peak ACh level above baseline ([2]; 1 mg/kg oral, FIG. 2, delayed increase): over 100%
- time for which the increase in ACh level was maintained ([2]; 1 mg/kg oral, FIG. 2, entire duration of testing): ≥ 3 h
- AUC, Area % under the curve ([2]; 0.5 mg/kg, vehicle methocel): 253 ± 156%
- Peak, maximal % increase of ACh release over baseline ([2]; 0.5 mg/kg, vehicle methocel): 40 ± 21%
- time of Peak after administration ([2]; 0.5 mg/kg, vehicle methocel): 40 min
- Duration, minutes of release above statistical significance ([2]; 0.5 mg/kg, vehicle methocel, NSP = no significant points): NSP
- AUC, Area % under the curve ([2]; 1 mg/kg, vehicle methocel): 711 ± 158%
- Peak, maximal % increase of ACh release over baseline ([2]; 1 mg/kg, vehicle methocel): 115 ± 27%
- time of Peak after administration ([2]; 1 mg/kg, vehicle methocel): 180 min
- Duration, minutes of release above statistical significance ([2]; 1 mg/kg, vehicle methocel, NSP = no significant points): >

Structure (SMILES): O=C1c2ccccc2C(Cc2ccncc2)(Cc2ccnc(F)c2)c2ccccc21 [Example 66]
- pEC50 [1]: 6.51

Structure (SMILES): Fc1cc(CC2(Cc3ccncc3)c3ccccc3Oc3ncccc32)ccn1 (stereo not drawn) [Example 70, 9-((2-Fluoro-4-pyridinyl)methyl)-9-(4-pyridinylmethyl)-4-azaxanthene]
- pEC50 [1]: 6.46

Structure (SMILES): COc1ccc2c(c1)C(=O)c1ccc(OC)cc1C2(Cc1ccnc(F)c1)Cc1ccnc(F)c1 [Example 74, 10,10-Bis((2-fluoro-4-pyridinyl)methyl)-2,6-dimethoxy-9(10H)-anthracenone]
- pEC50 [1]: 6.06

Structure (SMILES): COc1ccc2c(c1)C(Cc1ccnc(F)c1)(Cc1ccnc(F)c1)c1ccccc1C2=O [Example 77, 10,10-Bis((2-fluoro-4-pyridinyl)methyl)-3-methoxy-9(10H)-anthracenone]
- pEC50 [1]: 6.18

Structure (SMILES): C#Cc1ccc2c(c1)C(Cc1ccnc(F)c1)(Cc1ccnc(F)c1)c1cccnc1-2 [Example 79, 5,5-Bis((2-fluoro-4-pyridinyl)methyl)-7-(ethynyl)-5H-indeno-[1,2-b]pyridine]
- pEC50 [1]: 5.58

Structure (SMILES): Fc1cc(CC2(Cc3ccnc(F)c3)c3ccccc3-c3nccnc32)ccn1 [Example 80, 9,9-Bis((2-fluoro-4-pyridinyl)methyl)-9H-indeno-[1,2-b]pyrazine]
- pEC50 [1]: 5.63

Structure (SMILES): Nc1cccc2c1C(Cc1ccnc(F)c1)(Cc1ccnc(F)c1)c1ccccc1-2 [Example 96, 9,9-Bis((2-fluoro-4-pyridinyl)methyl)-9H-fluoren-1-amine]
- pEC50 [1]: 6.24
